Structures can show the parent of a compound that is named as a salt.
Target: T1, Human thrombin (Homo sapiens, UniProt P00734)
T1 construct: purchased Haematologic Technologies Inc
Test: Thrombin protease activity inhibition, chromogenic substrate S-2238
Type: biochemical
Details: 3 nM thrombin, 125 μM S-2238, 10 min pre-incubation, RT
Protocol: The thrombin activity reported herein (e.g., Table A) was obtained as follows. […] Thrombin was assayed in buffer containing 0.05 M Tris (pH 7.4), 0.015 M NaCl and 0.01% PEG-8000. The final concentration of enzyme used was 3 nM thrombin. […] All assays were performed in 96-well microtiter plates at room temperature (RT). […] Inhibitor IC50 values were determined by adding test compound as ten point, three-fold serial dilutions in buffer solution, as known in the art. The plate was read at 10 minutes after substrate addition. The IC50 was calculated by plotting the percent (%) inhibition against compound concentration and fitting the data to a constrained four parameter sigmoidal curve, as known in the art.

| Structure (SMILES) | IC50 |
| --- | --- |
| FC(F)(F)c1cccc(CN2CCC(c3cc(NCc4ccc(Cl)s4)[nH]n3)CC2)n1 [Entry 176, N-[(5-chlorothiophen-2-yl)methyl]-3-(1-[6-(trifluoromethyl)pyridin-2-yl]methylpiperidin-4-yl)-1H-pyrazol-5-amine] | > 100 µM |
| CS(=O)(=O)N1CCNC(c2cc(NCc3ccc(Cl)s3)[nH]n2)C1 (stereo not shown) [Entry 179, N-[(5-chlorothiophen-2-yl)methyl]-3-(4-methanesulfonylpiperazin-2-yl)-1H-pyrazol-5-amine] | > 100 µM |
| Clc1ccc(CNc2cc(C3CCOCC3)n[nH]2)s1 [Entry 182, N-[(5-chlorothiophen-2-yl)methyl]-3-(oxan-4-yl)-1H-pyrazol-5-amine] | > 100 µM |
| Clc1ccc(CNc2cc(C3CCCO3)n[nH]2)s1 (stereo not shown) [Entry 184, N-[(5-chlorothiophen-2-yl)methyl]-3-(oxolan-2-yl)-1H-pyrazol-5-amine] | > 100 µM |
| O=C(c1ccsc1)n1nc(C2CCCNC2)cc1NCc1ccc(Cl)s1 (stereo not shown) [Entry 185, N-[(5-chlorothiophen-2-yl)methyl]-3-(piperidin-3-yl)-1-(thiophene-3-carbonyl)-1H-pyrazol-5-amine] | 0.1 to 1 µM |
| Clc1ccc(CNc2cc(C3CCNC3)n[nH]2)s1 (stereo not shown) [Entry 190, N-[(5-chlorothiophen-2-yl)methyl]-3-(pyrrolidin-3-yl)-1H-pyrazol-5-amine] | 1 to 10 µM |
| Clc1ccc(CNc2cc(C3CCN(Cc4ncno4)CC3)n[nH]2)s1 [Entry 192, N-[(5-chlorothiophen-2-yl)methyl]-3-[1-(1,2,4-oxadiazol-5-ylmethyl)piperidin-4-yl]-1H-pyrazol-5-amine] | > 100 µM |
| Clc1ccc(CNc2cc(C3CCN(Cc4cnn[nH]4)CC3)n[nH]2)s1 [Entry 196, N-[(5-chlorothiophen-2-yl)methyl]-3-[1-(1H-1,2,3-triazol-5-ylmethyl)piperidin-4-yl]-1H-pyrazol-5-amine] | > 100 µM |
| Clc1ccc(CNc2cc(C3CCN(Cc4c[nH]cn4)CC3)n[nH]2)s1 [Entry 197, N-[(5-chlorothiophen-2-yl)methyl]-3-[1-(1H-imidazol-4-ylmethyl)piperidin-4-yl]-1H-pyrazol-5-amine] | 1 to 10 µM |
| Clc1ccc(CNc2cc(C3CCN(CC4CC4)CC3)n[nH]2)s1 [Entry 201, N-[(5-chlorothiophen-2-yl)methyl]-3-[1-(cyclopropylmethyl)piperidin-4-yl]-1H-pyrazol-5-amine] | > 100 µM |
| O=S(=O)(N1CCOCC1)N1CCC(c2cc(NCc3ccc(Cl)s3)[nH]n2)CC1 [Entry 207, N-[(5-chlorothiophen-2-yl)methyl]-3-[1-(morpholine-4-sulfonyl)piperidin-4-yl]-1H-pyrazol-5-amine] | > 100 µM |
| Clc1ccc(CNc2cc(C3CCN(Cc4ccccn4)CC3)n[nH]2)s1 [Entry 210, N-[(5-chlorothiophen-2-yl)methyl]-3-[1-(pyridin-2-ylmethyl)piperidin-4-yl]-1H-pyrazol-5-amine] | 1 to 10 µM |
| Clc1ccc(CNc2cc(C3CCN(Cc4cccnc4)CC3)n[nH]2)s1 [Entry 211, N-[(5-chlorothiophen-2-yl)methyl]-3-[1-(pyridin-3-ylmethyl)piperidin-4-yl]-1H-pyrazol-5-amine] | > 100 µM |
| O=C(N1CCOCC1)N1CCNC(c2cc(NCc3ccc(Cl)s3)[nH]n2)C1 (stereo not shown) [Entry 212, N-[(5-chlorothiophen-2-yl)methyl]-3-[4-(morpholine-4-carbonyl)piperazin-2-yl]-1H-pyrazol-5-amine hydrochloride] | > 100 µM |
| FC(F)(F)C(c1ccccn1)N1CCC(c2cc(NCc3ccc(Cl)s3)[nH]n2)CC1 (stereo not shown) [Entry 221, N-[(5-chlorothiophen-2-yl)methyl]-3-1-[2,2,2-trifluoro-1-(pyridin-2-yl)ethyl]piperidin-4-yl-1H-pyrazol-5-amine] | > 100 µM |
| Clc1ccc(CNc2cc(C3CCN(CCN4CCOCC4)CC3)n[nH]2)s1 [Entry 223, N-[(5-chlorothiophen-2-yl)methyl]-3-1-[2-(morpholin-4-yl)ethyl]piperidin-4-yl-1H-pyrazol-5-amine] | 1 to 10 µM |

Now from value to compound:

| IC50 | Structure (SMILES) |
| --- | --- |
| > 100 µM | CS(=O)(=O)N1CCC(c2cc(NCc3ccc(Cl)s3)[nH]n2)C1 (stereo not shown) [Entry 175, N-[(5-chlorothiophen-2-yl)methyl]-3-(1-methanesulfonylpyrrolidin-3-yl)-1H-pyrazol-5-amine] |
| < 0.1 µM | CC1(c2cc(NCc3ccc(Cl)s3)n(C(=O)c3ccsc3)n2)CCCN1 (stereo not shown) [Entry 177, N-[(5-chlorothiophen-2-yl)methyl]-3-(2-methylpyrrolidin-2-yl)-1-(thiophene-3-carbonyl)-1H-pyrazol-5-amine; formic acid] |
| 0.1 to 1 µM | CC1(c2cc(NCc3ccc(Cl)s3)n(C(=O)c3ccsc3)n2)CCCNC1 (stereo not shown) [Entry 178, N-[(5-chlorothiophen-2-yl)methyl]-3-(3-methylpiperidin-3-yl)-1-(thiophene-3-carbonyl)-1H-pyrazol-5-amine] |
| 1 to 10 µM | CC1(c2cc(NCc3ccc(Cl)s3)n(C(=O)c3ccsc3)n2)CCNCC1 [Entry 180, N-[(5-chlorothiophen-2-yl)methyl]-3-(4-methylpiperidin-4-yl)-1-(thiophene-3-carbonyl)-1H-pyrazol-5-amine] |
| 0.1 to 1 µM | O=C(c1ccsc1)n1nc(C2CCOCC2)cc1NCc1ccc(Cl)s1 [Entry 181, N-[(5-chlorothiophen-2-yl)methyl]-3-(oxan-4-yl)-1-(thiophene-3-carbonyl)-1H-pyrazol-5-amine] |
| < 0.1 µM | O=C(c1ccsc1)n1nc(C2CCCO2)cc1NCc1ccc(Cl)s1 (stereo not shown) [Entry 183, N-[(5-chlorothiophen-2-yl)methyl]-3-(oxolan-2-yl)-1-(thiophene-3-carbonyl)-1H-pyrazol-5-amine] |
| 1 to 10 µM | Clc1ccc(CNc2cc(C3CCCNC3)n[nH]2)s1 (stereo not shown) [Entry 186, N-[(5-chlorothiophen-2-yl)methyl]-3-(piperidin-3-yl)-1H-pyrazol-5-amine] |
| > 100 µM | Clc1ccc(CNc2cc(C3CCCN3)n[nH]2)s1 (stereo not shown) [Entry 189, N-[(5-chlorothiophen-2-yl)methyl]-3-(pyrrolidin-2-yl)-1H-pyrazol-5-amine] |
| > 100 µM | Clc1ccc(CNc2cc(C3CCN(Cc4ncon4)CC3)n[nH]2)s1 [Entry 191, N-[(5-chlorothiophen-2-yl)methyl]-3-[1-(1,2,4-oxadiazol-3-ylmethyl)piperidin-4-yl]-1H-pyrazol-5-amine] |
| > 100 µM | Clc1ccc(CNc2cc(C3CCN(Cc4ncco4)CC3)n[nH]2)s1 [Entry 193, N-[(5-chlorothiophen-2-yl)methyl]-3-[1-(1,3-oxazol-2-ylmethyl)piperidin-4-yl]-1H-pyrazol-5-amine] |
| > 100 µM | Clc1ccc(CNc2cc(C3CCN(Cc4cnco4)CC3)n[nH]2)s1 [Entry 194, N-[(5-chlorothiophen-2-yl)methyl]-3-[1-(1,3-oxazol-5-ylmethyl)piperidin-4-yl]-1H-pyrazol-5-amine] |
| 1 to 10 µM | Clc1ccc(CNc2cc(C3CCN(Cc4nnn[nH]4)CC3)n[nH]2)s1 [Entry 195, N-[(5-chlorothiophen-2-yl)methyl]-3-[1-(1H-1,2,3,4-tetrazol-5-ylmethyl)piperidin-4-yl]-1H-pyrazol-5-amine] |
| > 100 µM | FC(F)(F)CN1CCC(c2cc(NCc3ccc(Cl)s3)[nH]n2)CC1 [Entry 198, N-[(5-chlorothiophen-2-yl)methyl]-3-[1-(2,2,2-trifluoroethyl)piperidin-4-yl]-1H-pyrazol-5-amine] |
| > 100 µM | COCCN1CCC(c2cc(NCc3ccc(Cl)s3)[nH]n2)CC1 [Entry 200, N-[(5-chlorothiophen-2-yl)methyl]-3-[1-(2-methoxyethyl)piperidin-4-yl]-1H-pyrazol-5-amine] |
| > 100 µM | O=C(N1CCOCC1)N1CCC(c2cc(NCc3ccc(Cl)s3)[nH]n2)CC1 [Entry 203, N-[(5-chlorothiophen-2-yl)methyl]-3-[1-(morpholine-4-carbonyl)piperidin-4-yl]-1H-pyrazol-5-amine] |
| < 0.1 µM | O=C(N1CCOCC1)N1CCC(c2cc(NCc3ccc(Cl)s3)n(C(=O)c3cscn3)n2)C1 (stereo not shown) [Entry 205, N-[(5-chlorothiophen-2-yl)methyl]-3-[1-(morpholine-4-carbonyl)pyrrolidin-3-yl]-1-(1,3-thiazole-4-carbonyl)-1H-pyrazol-5-amine] |
| > 100 µM | O=C(N1CCOCC1)N1CCC(c2cc(NCc3ccc(Cl)s3)[nH]n2)C1 (stereo not shown) [Entry 206, N-[(5-chlorothiophen-2-yl)methyl]-3-[1-(morpholine-4-carbonyl)pyrrolidin-3-yl]-1H-pyrazol-5-amine] |
| < 0.1 µM | O=C(N1CCOCC1)N1C2CCC1CC(c1cc(NCc3ccc(Cl)s3)n(C(=O)c3cscn3)n1)C2 (stereo not shown) [Entry 213, N-[(5-chlorothiophen-2-yl)methyl]-3-[8-(morpholine-4-carbonyl)-8-azabicyclo[3.2.1]octan-3-yl]-1-(1,3-thiazole-4-carbonyl)-1H-pyrazol-5-amine] |
| > 100 µM | O=C(N1CCOCC1)N1C2CCC1CC(c1cc(NCc3ccc(Cl)s3)[nH]n1)C2 (stereo not shown) [Entry 214, N-[(5-chlorothiophen-2-yl)methyl]-3-[8-(morpholine-4-carbonyl)-8-azabicyclo[3.2.1]octan-3-yl]-1H-pyrazol-5-amine] |
| > 100 µM | Cc1cccc(CN2CCC(c3cc(NCc4ccc(Cl)s4)[nH]n3)CC2)n1 [Entry 220, N-[(5-chlorothiophen-2-yl)methyl]-3-1-[(6-methylpyridin-2-yl)methyl]piperidin-4-yl-1H-pyrazol-5-amine] |
| > 100 µM | FC(F)(CN1CCC(c2cc(NCc3ccc(Cl)s3)[nH]n2)CC1)c1ccccn1 [Entry 222, N-[(5-chlorothiophen-2-yl)methyl]-3-1-[2,2-difluoro-2-(pyridin-2-yl)ethyl]piperidin-4-yl-1H-pyrazol-5-amine] |
